Consider 18 compounds from patent US20260053834A1, “COVALENT MODIFIERS OF AKT1 AND USES THEREOF” (Terremoto Biosciences, Inc., priority 2023, published 2026).

One assay concerns the target T1, AKT1 WT (Homo sapiens, UniProt P31749).
T1 construct: expressed in transfected cells; host or cells: HEK293
The assay can be described thus: Live cell target engagement by NanoBRET competitive probe displacement, AKT1 WT. The class given is binding. Conditions: transfected HEK293 cells, 2 h at 37° C., read-out: AKT1 WT IC50: GeoMean IC50. On the technique in general: Bioluminescence resonance energy transfer reports proximity on the nanometre scale.

The target in another assay is T2, AKT1 E17K (Homo sapiens, UniProt P31749, E17K).
T2 construct: expressed in transfected cells; host or cells: HEK293
T2 sequence (P31749 whole entry E17K): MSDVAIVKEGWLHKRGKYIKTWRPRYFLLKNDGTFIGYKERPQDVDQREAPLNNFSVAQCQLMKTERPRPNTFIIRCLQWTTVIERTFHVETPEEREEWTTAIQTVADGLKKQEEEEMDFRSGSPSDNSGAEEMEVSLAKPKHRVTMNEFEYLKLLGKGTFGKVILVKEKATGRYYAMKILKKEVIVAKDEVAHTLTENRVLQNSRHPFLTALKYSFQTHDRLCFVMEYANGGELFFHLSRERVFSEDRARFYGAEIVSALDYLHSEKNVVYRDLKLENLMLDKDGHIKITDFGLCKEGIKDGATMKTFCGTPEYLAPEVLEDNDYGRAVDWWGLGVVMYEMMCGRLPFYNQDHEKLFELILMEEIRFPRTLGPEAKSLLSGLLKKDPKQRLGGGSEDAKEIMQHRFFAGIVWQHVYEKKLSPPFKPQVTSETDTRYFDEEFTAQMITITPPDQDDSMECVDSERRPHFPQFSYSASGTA
The assay can be described thus: Live cell target engagement by NanoBRET competitive probe displacement, AKT1 E17K. Type of assay: binding. Conditions: transfected HEK293 cells, 2 h at 37° C., read-out: AKT1 E17K IC50: GeoMean IC50.

The subject of assay [1] is LAPC4 prostate cancer cells, which express the AKT1 E17K allele. Nature of the assay: Antiproliferative effects in LAPC4 cells (CellTiter Glo, 72 h). The class given is cell-based. Conditions: Homo sapiens, LAPC4, 72 h, read-out: LAPC4 proliferation IC50: GeoMean IC50. An outline of the steps: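 Cells grown in IMDM with 12% FBS, seeded at 1,000 cells/well and treated with compound dilutions in DMSO for 72 h. Intracellular ATP read by luminescence. IC50 from a log(inhibitor) vs. response Hill fit.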
(ATP-based viability assays read luminescence as a measure of living cells.)

In a further assay the target is T3, AKT2 (Homo sapiens, UniProt P31751).
T3 construct: expressed in transfected cells; host or cells: HEK293
T3 sequence (P31751 whole entry): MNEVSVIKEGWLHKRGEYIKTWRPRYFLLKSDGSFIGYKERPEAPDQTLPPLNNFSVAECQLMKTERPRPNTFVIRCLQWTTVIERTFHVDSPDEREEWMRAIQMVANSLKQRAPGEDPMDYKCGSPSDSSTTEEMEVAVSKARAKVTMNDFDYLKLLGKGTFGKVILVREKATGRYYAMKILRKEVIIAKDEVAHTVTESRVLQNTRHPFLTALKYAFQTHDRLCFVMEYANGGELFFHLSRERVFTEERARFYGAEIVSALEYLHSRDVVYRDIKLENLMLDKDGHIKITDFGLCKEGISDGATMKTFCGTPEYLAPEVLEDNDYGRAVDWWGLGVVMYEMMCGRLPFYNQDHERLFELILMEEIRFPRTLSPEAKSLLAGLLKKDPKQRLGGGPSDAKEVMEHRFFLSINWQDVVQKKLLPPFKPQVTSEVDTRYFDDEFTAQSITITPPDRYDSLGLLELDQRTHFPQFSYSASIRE
Nature of the assay: Live cell target engagement by NanoBRET competitive probe displacement, AKT2. Conditions: transfected HEK293 cells, 2 h at 37° C., read-out: AKT2 IC50: GeoMean IC50. Type of assay: binding.

T1 sequence (P31749 whole entry): as the sequence (P31749 whole entry E17K) above, with K17E counted along it

For the compound `COc1cncc(-c2ccc3nc(-c4cccnc4N)n(-c4ccc5c(c4)CC[C@@H]5NC(=O)c4ccc(O)c(C=O)c4)c3n2)n1` [Example 80, N-[(1S)-5-[2-(2-aminopyridin-3-yl)-5-(6-methoxypyrazin-2-yl)imidazo[4,5-b]pyridin-3-yl]-2,3-dihydro-1H-inden-1-yl]-3-formyl-4-hydroxybenzamide], the IC50 on AKT1 WT fell in the range of 10 to 100 nM; on AKT1 E17K, 10 to 100 nM; in assay [1], 100 to 2000 nM; on AKT2, 100 to 2000 nM.

As to `Nc1ncccc1-c1nc2ccc(-n3cccn3)nc2n1-c1ccc2c(c1)CC[C@@H]2NC(=O)c1cc(F)c(O)c(C=O)c1` [Example 81, N-[(1S)-5-[2-(2-aminopyridin-3-yl)-5-(pyrazol-1-yl)imidazo[4,5-b]pyridin-3-yl]-2,3-dihydro-1H-inden-1-yl]-3-fluoro-5-formyl-4-hydroxybenzamide], the IC50 at AKT1 WT lay in the range of 10 to 100 nM; on AKT1 E17K it was 10 to 100 nM; in assay [1], 100 to 2000 nM; at AKT2, 100 to 2000 nM.

Take `Nc1ncccc1-c1nc2ccc(-n3cccn3)nc2n1-c1ccc2c(c1)CC[C@@H]2NC(=O)c1cc(C=O)c(O)c(F)c1F` [Example 82, (S)—N-(5-(2-(2-aminopyridin-3-yl)-5-(1H-pyrazol-1-yl)-3H-imidazo[4,5-b]pyridin-3-yl)-2,3-dihydro-1H-inden-1-yl)-2,3-difluoro-5-formyl-4-hydroxybenzamide]: the IC50 (on AKT1 WT; on AKT1 E17K; in assay [1]; on AKT2) was 10 to 100 nM in each case.

In the case of `COc1cnn(-c2ccc3nc(-c4cccnc4N)n(-c4ccc5c(c4)CC[C@@H]5NC(=O)c4ccc(O)c(C=O)c4)c3n2)c1` [Example 83, N-[(1S)-5-[2-(2-aminopyridin-3-yl)-5-(4-methoxypyrazol-1-yl)imidazo[4,5-b]pyridin-3-yl]-2,3-dihydro-1H-inden-1-yl]-3-formyl-4-hydroxybenzamide], the IC50 on AKT1 WT fell in the range of 10 to 100 nM; at AKT1 E17K, 10 to 100 nM; in assay [1] it was 100 to 2000 nM; at AKT2, 100 to 2000 nM.

Take `Nc1ncccc1-c1nc2ccc(-n3cc(C=O)cn3)nc2n1-c1ccc2c(c1)CC[C@@H]2NC(=O)c1ccc(O)c(C=O)c1` [Example 84, N-[(1S)-5-[2-(2-aminopyridin-3-yl)-5-(4-formylpyrazol-1-yl)imidazo[4,5-b]pyridin-3-yl]-2,3-dihydro-1H-inden-1-yl]-3-formyl-4-hydroxybenzamide]: the IC50 at AKT1 WT was in the range of 100 to 2000 nM; on AKT1 E17K, 10 to 100 nM; in assay [1], 100 to 2000 nM; at AKT2, 100 to 2000 nM.

Consider `Nc1ncccc1-c1nc2ccc(-n3cccn3)nc2n1-c1ccc2c(c1)C(=O)C[C@@H]2NC(=O)c1ccc(O)c(C=O)c1` [Example 85, N-[(1S)-5-[2-(2-aminopyridin-3-yl)-5-(pyrazol-1-yl)imidazo[4,5-b]pyridin-3-yl]-3-oxo-1,2-dihydroinden-1-yl]-3-formyl-4-hydroxybenzamide], for which the IC50 is 100 to 2000 nM on AKT1 WT, 100 to 2000 nM on AKT1 E17K, no less than 2000 nM in assay [1] and 100 to 2000 nM at AKT2.

With `CS(=O)(=O)Nc1ccc(C(=O)N[C@H]2CCc3cc(-n4c(-c5cccnc5N)nc5ccc(-n6cccn6)nc54)ccc32)cc1C=O` [Example 86, N-[(1S)-5-[2-(2-aminopyridin-3-yl)-5-(pyrazol-1-yl)imidazo[4,5-b]pyridin-3-yl]-2,3-dihydro-1H-inden-1-yl]-3-formyl-4-methanesulfonamidobenzamide], the IC50 at AKT1 WT was in the range of 10 to 100 nM; on AKT1 E17K it was 10 to 100 nM; in assay [1], 10 to 100 nM; on AKT2, 100 to 2000 nM.

Consider `Nc1ncccc1-c1nc2ccc(NC3CC3)nc2n1-c1ccc2c(c1)CC[C@@H]2NC(=O)c1ccc(O)c(C=O)c1` [Example 87, (S)—N-(5-(2-(2-aminopyridin-3-yl)-5-(cyclopropylamino)-3H-imidazo[4,5-b]pyridin-3-yl)-2,3-dihydro-1H-inden-1-yl)-3-formyl-4-hydroxybenzamide], for which the IC50 is 100 to 2000 nM at AKT1 WT, 10 to 100 nM at AKT1 E17K, 100 to 2000 nM in assay [1] and no less than 2000 nM at AKT2.

Consider `Nc1ncccc1-c1nc2ccc(-c3cscn3)nc2n1-c1ccc2c(c1)CC[C@@H]2NC(=O)c1ccc(O)c(C=O)c1` [Example 88, N-[(1S)-5-[2-(2-aminopyridin-3-yl)-5-(1,3-thiazol-4-yl)imidazo[4,5-b]pyridin-3-yl]-2,3-dihydro-1H-inden-1-yl]-3-formyl-4-hydroxybenzamide], for which the IC50 lay within 10 to 100 nM on AKT1 WT, 10 to 100 nM on AKT1 E17K, 10 to 100 nM in assay [1] and 100 to 2000 nM at AKT2.

On to `Nc1ncccc1-c1nc2ccc(-c3ccccc3)nc2n1-c1ccc2c(c1)CC[C@@H]2NC(=O)c1ccc(O)c(C=O)n1` [Example 89, (S)—N-(5-(2-(2-aminopyridin-3-yl)-5-phenyl-3H-imidazo[4,5-b]pyridin-3-yl)-2,3-dihydro-1H-inden-1-yl)-6-formyl-5-hydroxypicolinamide], for which the IC50 at AKT1 WT lay in the range of 10 to 100 nM; on AKT1 E17K, 100 to 2000 nM; in assay [1], 100 to 2000 nM; on AKT2, 100 to 2000 nM.

Consider `N#Cc1cnn(-c2ccc3nc(-c4cccnc4N)n(-c4ccc5c(c4)CC[C@@H]5NC(=O)c4ccc(O)c(C=O)c4)c3n2)c1` [Example 90, N-[(1S)-5-[2-(2-aminopyridin-3-yl)-5-(4-cyanopyrazol-1-yl)imidazo[4,5-b]pyridin-3-yl]-2,3-dihydro-1H-inden-1-yl]-3-formyl-4-hydroxybenzamide], for which the IC50 is 100 to 2000 nM at AKT1 WT, 10 to 100 nM on AKT1 E17K, 100 to 2000 nM in assay [1] and 100 to 2000 nM on AKT2.

On to `Nc1ncccc1-c1nc2ccc(-n3nccn3)nc2n1-c1ccc2c(c1)CC[C@@H]2NC(=O)c1ccc(O)c(C=O)c1` [Example 91, N-[(1S)-5-[2-(2-aminopyridin-3-yl)-5-(1,2,3-triazol-2-yl)imidazo[4,5-b]pyridin-3-yl]-2,3-dihydro-1H-inden-1-yl]-3-formyl-4-hydroxybenzamide], for which the IC50 on AKT1 WT lay within 10 to 100 nM; on AKT1 E17K, 10 to 100 nM; in assay [1], 10 to 100 nM; on AKT2, 100 to 2000 nM.

With `Nc1ncccc1-c1nc2ccc(-n3ccnn3)nc2n1-c1ccc2c(c1)CC[C@@H]2NC(=O)c1ccc(O)c(C=O)c1` [Example 92, N-[(1S)-5-[2-(2-aminopyridin-3-yl)-5-(1,2,3-triazol-1-yl)imidazo[4,5-b]pyridin-3-yl]-2,3-dihydro-1H-inden-1-yl]-3-formyl-4-hydroxybenzamide], the IC50 fell in the range of 10 to 100 nM on AKT1 WT, 10 to 100 nM at AKT1 E17K, 100 to 2000 nM in assay [1] and 100 to 2000 nM on AKT2.

For `Nc1ncccc1-c1nc2ccc(-n3cccn3)nc2n1-c1ccc2c(c1)CC[C@@H]2NC(=O)c1cc(Cl)c(O)c(C=O)c1` [Example 93, N-[(1S)-5-[2-(2-aminopyridin-3-yl)-5-(pyrazol-1-yl)imidazo[4,5-b]pyridin-3-yl]-2,3-dihydro-1H-inden-1-yl]-3-chloro-5-formyl-4-hydroxybenzamide], the IC50 on AKT1 WT was 10 to 100 nM; at AKT1 E17K, 10 to 100 nM; in assay [1], 100 to 2000 nM; at AKT2, 100 to 2000 nM.

Turning to `Nc1ncccc1-c1nc2ccc(-n3cc(C(F)F)cn3)nc2n1-c1ccc2c(c1)CC[C@@H]2NC(=O)c1ccc(O)c(C=O)c1` [Example 94, N-[(1S)-5-[2-(2-aminopyridin-3-yl)-5-[4-(difluoromethyl)pyrazol-1-yl]imidazo[4,5-b]pyridin-3-yl]-2,3-dihydro-1H-inden-1-yl]-3-formyl-4-hydroxybenzamide], the IC50 lay within 100 to 2000 nM at AKT1 WT, 10 to 100 nM on AKT1 E17K, 100 to 2000 nM in assay [1] and 100 to 2000 nM at AKT2.

As to `Cc1ccn(-c2ccc3nc(-c4cccnc4N)n(-c4ccc5c(c4)CC[C@@H]5NC(=O)c4ccc(O)c(C=O)c4)c3n2)n1` [Example 95, N-[(1S)-5-[2-(2-aminopyridin-3-yl)-5-(3-methylpyrazol-1-yl)imidazo[4,5-b]pyridin-3-yl]-2,3-dihydro-1H-inden-1-yl]-3-formyl-4-hydroxybenzamide], the IC50 at AKT1 WT lay within 10 to 100 nM; at AKT1 E17K, 10 to 100 nM; in assay [1] it was 10 to 100 nM; on AKT2, 100 to 2000 nM.

In the case of `Nc1ncccc1-c1nc2ccc(-n3ccc(Cl)n3)nc2n1-c1ccc2c(c1)CC[C@@H]2NC(=O)c1ccc(O)c(C=O)c1` [Example 96, (S)—N-(5-(2-(2-aminopyridin-3-yl)-5-(3-chloro-1H-pyrazol-1-yl)-3H-imidazo[4,5-b]pyridin-3-yl)-2,3-dihydro-1H-inden-1-yl)-3-formyl-4-hydroxybenzamide], the IC50 at AKT1 WT lay within 100 to 2000 nM; on AKT1 E17K, 10 to 100 nM; in assay [1] it was 100 to 2000 nM; at AKT2, 100 to 2000 nM.

`Nc1ncccc1-c1nc2ccc(-n3cncn3)nc2n1-c1ccc2c(c1)CC[C@@H]2NC(=O)c1ccc(O)c(C=O)c1` [Example 97, N-[(1S)-5-[2-(2-aminopyridin-3-yl)-5-(1,2,4-triazol-1-yl)imidazo[4,5-b]pyridin-3-yl]-2,3-dihydro-1H-inden-1-yl]-3-formyl-4-hydroxybenzamide]: the IC50 was in the range of 100 to 2000 nM on AKT1 WT, 10 to 100 nM at AKT1 E17K, 100 to 2000 nM in assay [1] and 100 to 2000 nM on AKT2.
